Laboratory results as given in ChEMBL document CHEMBL4000237, “Synthesis and biological evaluation of thiazole derivatives as novel USP7 inhibitors” (Bioorg Med Chem Lett, 2017).

Key:
[1] = biological target: Ubiquitin carboxyl-terminal hydrolase 7 (Homo sapiens, UniProt Q93009); assay: Inhibition of USP7 (unknown origin) using Ub-Rho as substrate preincubated for 30 mins followed by substrate addition and subsequent incubation in dark for 3 hrs by fluorescence assay
HCT-116 = assay: Antiproliferative activity against human HCT116 cells expressing wild type p53 assessed as decrease in cell viability after 72 hrs by MTT assay; settings: HCT-116, 72 h
[2] = Antiproliferative activity against human […] cells expressing p53 mutant assessed as decrease in cell viability after 72 hrs by MTT assay; format: functional, cell-based
NCI-H1299 = assay: Antiproliferative activity against p53 deficient human NCI-H1299 cells assessed as decrease in cell viability after 72 hrs by MTT assay; format: functional, cell-based; settings: NCI-H1299, 72 h

Chain of Ubiquitin carboxyl-terminal hydrolase 7 (Q93009 whole entry): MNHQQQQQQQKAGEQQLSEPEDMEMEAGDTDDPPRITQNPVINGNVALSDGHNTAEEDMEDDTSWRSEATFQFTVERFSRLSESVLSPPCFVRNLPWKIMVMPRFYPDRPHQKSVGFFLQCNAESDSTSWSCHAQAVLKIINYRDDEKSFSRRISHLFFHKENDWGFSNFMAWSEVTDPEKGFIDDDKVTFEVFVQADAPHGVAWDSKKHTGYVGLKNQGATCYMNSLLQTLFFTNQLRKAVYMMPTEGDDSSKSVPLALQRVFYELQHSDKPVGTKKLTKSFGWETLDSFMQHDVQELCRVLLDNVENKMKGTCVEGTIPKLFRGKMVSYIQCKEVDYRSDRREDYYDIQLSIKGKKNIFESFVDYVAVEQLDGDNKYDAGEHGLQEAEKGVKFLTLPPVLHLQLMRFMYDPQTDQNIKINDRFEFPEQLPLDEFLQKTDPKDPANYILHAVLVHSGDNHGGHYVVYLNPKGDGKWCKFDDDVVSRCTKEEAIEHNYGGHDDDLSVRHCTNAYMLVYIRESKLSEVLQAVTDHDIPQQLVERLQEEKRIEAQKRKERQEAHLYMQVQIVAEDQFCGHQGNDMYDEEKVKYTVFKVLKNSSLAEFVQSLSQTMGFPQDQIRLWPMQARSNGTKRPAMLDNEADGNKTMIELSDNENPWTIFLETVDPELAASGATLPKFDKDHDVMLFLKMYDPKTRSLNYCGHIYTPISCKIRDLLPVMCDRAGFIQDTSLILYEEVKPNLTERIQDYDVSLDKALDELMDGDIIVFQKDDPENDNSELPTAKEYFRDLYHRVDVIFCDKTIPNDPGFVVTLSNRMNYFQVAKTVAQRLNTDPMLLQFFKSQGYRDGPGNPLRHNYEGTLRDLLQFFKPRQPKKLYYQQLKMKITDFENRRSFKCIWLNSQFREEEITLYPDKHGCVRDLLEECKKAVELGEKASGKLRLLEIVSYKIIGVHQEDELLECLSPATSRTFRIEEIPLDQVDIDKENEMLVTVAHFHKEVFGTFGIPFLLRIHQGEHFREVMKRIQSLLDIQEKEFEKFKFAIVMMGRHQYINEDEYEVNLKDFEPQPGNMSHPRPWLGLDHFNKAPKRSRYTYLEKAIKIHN

| Compound | IC50 [1] [µM] | IC50 (HCT-116) [µM] | IC50 [2] [µM] | IC50 (NCI-H1299) [µM] |
| --- | --- | --- | --- | --- |
| CC(=O)c1ncc(Sc2cccc(Cl)c2Cl)s1 | > 50 | > 50 | – | – |
| CC(O)c1nc([N+](=O)[O-])c(Sc2c(Cl)cncc2Cl)s1 (stereo unspecified) | 6.95 | 18.6 | – | – |
| CC(=O)c1nc([N+](=O)[O-])c(Sc2c(Cl)cccc2Cl)s1 | 4.49 | 19.3 | – | – |
| O=C(NCc1ccccc1)c1nc([N+](=O)[O-])c(Sc2c(Cl)cncc2Cl)s1 | 4.21 | 13.5 | – | – |
| CC(=O)c1nc([N+](=O)[O-])c(Sc2cccc(Cl)c2Cl)s1 | 9.93 | 9.29 | – | – |
| CC(=O)c1nc([N+](=O)[O-])c(Sc2ccc(Cl)c(Cl)c2)s1 | 18 | 16.4 | – | – |
| CC(=O)OC(C)c1nc([N+](=O)[O-])c(Sc2c(Cl)cncc2Cl)s1 (stereo unspecified) | > 50 | 24.8 | – | – |
| CC(=O)c1ncc(Sc2ccc(Cl)c(Cl)c2)s1 | > 50 | > 50 | – | – |
| O=C(NCc1ccc(F)cc1)c1nc([N+](=O)[O-])c(Sc2c(Cl)cncc2Cl)s1 | 2.65 | 11.2 | – | – |
| CC(NCc1ccccc1)c1nc([N+](=O)[O-])c(Sc2c(Cl)cncc2Cl)s1 (stereo unspecified) | 26.8 | 11.8 | – | – |
| CC(=O)c1nc([N+](=O)[O-])c(NCc2ccc(Cl)c(Cl)c2)s1 | > 50 | > 50 | – | – |
| COc1ccc(Sc2sc(C(C)=O)nc2[N+](=O)[O-])cc1OC | > 50 | 24 | – | – |
| Cc1ccc(CNC(=O)c2nc([N+](=O)[O-])c(Sc3c(Cl)cncc3Cl)s2)cc1 | 3.65 | 6.64 | – | – |
| O=C(Nc1ccccc1)c1nc([N+](=O)[O-])c(Sc2c(Cl)cncc2Cl)s1 | 40.5 | 12.4 | – | – |
| CC(=O)c1nc([N+](=O)[O-])c(Sc2c(Cl)cncc2Cl)s1 | 0.67 | 8.45 | 11 | 6.21 |
| CC(=O)c1nc([N+](=O)[O-])c(Sc2ccc(Cl)cc2Cl)s1 | 16.8 | 12.5 | – | – |
| O=C(NCc1cccc(F)c1)c1nc([N+](=O)[O-])c(Sc2c(Cl)cncc2Cl)s1 | 1.35 | 6.36 | 6.11 | 3.68 |
| CC(OC(=O)c1ccccc1)c1nc([N+](=O)[O-])c(Sc2c(Cl)cncc2Cl)s1 (stereo unspecified) | > 50 | 12 | – | – |
| CCCC(=O)OC(C)c1nc([N+](=O)[O-])c(Sc2c(Cl)cncc2Cl)s1 (stereo unspecified) | 4.49 | 11.7 | – | – |
| COc1cccc(Sc2sc(C(C)=O)nc2[N+](=O)[O-])c1 | > 50 | 17.3 | – | – |
| CC(=O)c1nc([N+](=O)[O-])c(Sc2ccc(F)cc2F)s1 | 6.12 | 10.2 | – | – |
